{"source": "patent US10287294B2", "about": "“Compounds for use in treating or preventing cancerous diseases” (BIOMEDICAL RESEARCH FOUNDATION OF THE ACADEMY OF ATHENS, priority 2015, dated 2019)", "key": {"[1]": {"test_system": "human prostate cancer xenografts", "details": "two weeks in vivo treatment with 20 or 30 mg/kg; cited from earlier work"}, "[2]": {"test_system": "human pancreatic ductal adenocarcinoma cell line MiaPaCa2 xenografts", "test": "Amy22 treatment of MiaPaCa2 xenografts in NOD/SCID mice", "type": "in vivo", "details": "Amy22 150 mg/kg for two weeks", "description": "For transplantation, eight-week old NOD/SCID mice were anesthetized using a steady flow of a mixture of isofluorane gas (4%) and oxygen and inoculated subcutaneously into their lateral flanks with 10^6 cancer cells and monitored daily until the tumors became palpable (tumor volume ˜100 mm^3). The mice were then divided randomly into two groups for Amy22 (150 mg/kg) or vehicle administration for a period of two weeks. Average weights±S.E.M (n=4 in each case) are indicated (p<0.001 and <0.05 for MiaPaCa2 and MMTV-Myc, respectively). […] FIG. 3 illustrates the gross appearance of surgically recovered Amy22-treated or untreated (control) xenografts."}, "TGR-1 cells": {"test_system": "TGR-1 cells", "test": "MTT cell viability assay, TGR-1 cells (Myc+/+)", "type": "cell-based", "details": "Rattus norvegicus, TGR1, 72 h; for IC50: Myc+/+ cells, MTT day 3, logit-log linear regression", "source_text": "(§1) To evaluate the in vitro activity of the compound having the formula (II) (Amy22), the sibling cell lines TGR-1 and H015.19 were used. The TGR-1 cells are a subclone of the Rat-1 fibroblastic cell line with intact Myc (Myc^+/+), whereas the H015.19 cells are Myc^−/− derivatives of the TGR-1 cells (Mateyak et al., 1997). The two sibling cell lines thus differ only in the presence or absence of Myc, thereby allowing to determine not only the activity of the tested compound in Myc-positive cancer cells, but also in cells not expressing Myc offering an indication of the specificity of the tested compound.\n(§2) The TGR-1 and H015.19 cells were grown in DMEM supplemented with 10% FBS. Equal numbers of cells were seeded in multiple wells of 24-well plates at low density (<20% confluence at day 0), and either DMSO or DMSO-dissolved Amy22 (various concentrations) was added to the medium (final concentration of DMSO: 0.1%). Cell viability (sextuplicates) was measured on day 3 by using a standard MTT (Thiazolyl Blue Tetrazolium Bromide) colorimetric assay (Mosmann, 1983). Half-maximal inhibitory concentrations (IC50) were determined using a log it-log plot and linear regression of the data (SigmaPlot software; Systat Software, Inc., San Jose, Calif., USA), as shown in FIG. 1 and Table 1. The measured data were plotted on the log it-log plot for linear regression of cell viability data (average values from 5 independent experiments in each case), in order to calculate the Amy22 IC50 for the sibling cell lines that differ only in the presence or absence of Myc (TGR-1 and H015.19 cells, respectively). The IC50 for H015.19 cells was calculated by extrapolation."}, "H015.19 cells": {"test_system": "H015.19 cells", "test": "MTT cell viability assay, H015.19 cells (Myc-/-)", "type": "cell-based, rat", "details": "Rattus norvegicus, 72 h, Myc-/- cells", "source_text": "as §1, §2"}, "[3]": {"test": "MTT cell viability assay, H015.19 cells (Myc-/-)", "type": "cell-based, rat", "details": "rat, H015.19 cells (Myc-/- derivatives of TGR-1), day 3, MTT, average ± S.E.M", "source_text": "as §1, §2"}, "[4]": {"test": "Blood concentrations of Amy22 after oral gavage to mice (LC-MS/MS, non-compartmental analysis)", "type": "in vivo, mouse", "description": "Animals at the age of 10 weeks were fasted overnight and weighed before dosing (average weight=21.6 g, n=6 male C57BL/6N). Dosing solutions of 20 mg/ml Amy22 in 0.5% carboxymethyl cellulose (CMC) were used for administration per os (0.15 ml per animal, dose 140 mg/kg). A serial tail bleeding protocol was used for the collection of blood samples. Blood samples (10 μl) were collected at selected time points (0.5, 1, 2, 4, 8, 24 hours) in tubes containing 40 μl sodium citrate (0.1 M, pH 4.5) and stored at −80° C. until sample extraction. Samples were prepared for quantification by protein precipitation and evaporation. Amy22 was quantified by LC-MS/MS analysis.\nPharmacokinetic Parameters Using Non-Compartmental Analysis"}, "[5]": {"test_system": "pancreatic ductal adenocarcinoma (PDA)", "test": "Micro PET/CT imaging of Pdx1-Cre/KRAS*A mouse treated with Amy22", "type": "in vivo", "description": "PET/CT images were acquired of a Pdx1-Cre/KRAS*A mouse at the beginning and end of treatment (one month) of pancreatic ductal adenocarcinoma (PDA) with the Amy22 compound (cf. FIG. 4; a representative out of three independent experiments is shown). Dosing solutions of 20 mg/ml Amy22 in 0.5% carboxymethyl cellulose (CMC) were used for daily administration per os (0.15 ml per animal, dose 150 mg/kg) for 30 days. The diminished uptake of ^18F-FDG by remnants of PDA is evident and measured by the standardized uptake values (SUV values) that were 2.87 at the beginning and 1.5 at the end of the treatment. The white arrows indicate the anatomical sites of pancreata. High-level concentration of ^18F-FDG in the urinary bladder (excretion of the tracer) and also in the heart (yellow arrows) is noted."}, "[6]": {"test_system": "pancreatic ductal adenocarcinoma (PDA)", "test": "Post-mortem gamma counting of 18F-FDG uptake in Pdx1-Cre/KRAS*A mice after monotherapy or combination with Amy22", "type": "in vivo, mouse", "details": "one month; Gemcitabine 300 mg/kg IP weekly; in combination Amy22 150 mg/kg per os daily", "quoted_text": "The representative PET/CT images shown were acquired for Pdx1-Cre/KRAS*A mice at the beginning and end of treatment (one month) of pancreatic ductal adenocarcinoma (PDA) using either Gemcitabine alone or a combination of Gemcitabine and Amy22. The scheme used for the treatment was as follows: weekly IP administration of Gemcitabine (300 mg/kg) in both cases and daily administration of AMY22 per os (150 mg/kg) in the combination treatment (cf. FIG. 5).\nIn some scans, a high-level concentration of ^18F-FDG in the urinary bladder (excretion of the tracer) could be observed. High uptake of radioactivity (unrelated to the presence of tumor) was also noted in the heart."}, "[7]": {"details": "mouse, whole blood, po, blood, male C57BL/6N mice, 140 mg/kg per os in 0.5% CMC"}, "[8]": {"details": "MTT day 3, logit-log linear regression"}}}
{"smiles": "CCc1ccc(C=C2SC(=S)NC2=O)cc1", "note": "[10058-F4, [Z,E]-5-[4-ethylbenzylidine]-2-thioxothiazolidin-4-one]", "values": [{"measurement": "inhibition of tumor growth", "setting": "[1]", "result": "no significant inhibition of tumor growth"}]}
{"smiles": "O=C(Nc1c(C(=O)O)cnn1-c1ccccc1)c1cc2nc(-c3ccco3)cc(C(F)(F)Cl)n2n1", "note": "[Amy22]", "values": [{"measurement": "apoptosis in xenografts", "setting": "[2]", "result": "induced apoptosis"}, {"measurement": "proliferation index (Ki67 immunohistochemistry)", "setting": "[2]; MiaPaCa2 xenografts, controls 69.9±5.1%", "result": "15.0±3.3", "unit": "%"}, {"measurement": "viability at 0.1 µM", "setting": "TGR-1 cells; Amy22 0.1 μM, day 3, MTT, average ± S.E.M", "result": "84.4 ± 5", "unit": "%"}, {"measurement": "viability at 0.5 µM", "setting": "TGR-1 cells; Amy22 0.5 μM, day 3, MTT, average ± S.E.M", "result": "73.7 ± 4", "unit": "%"}, {"measurement": "viability at 1 µM", "setting": "TGR-1 cells; Amy22 1 μM, day 3, MTT, average ± S.E.M", "result": "67.3 ± 4.1", "unit": "%"}, {"measurement": "viability at 5 µM", "setting": "TGR-1 cells; Amy22 5 μM, day 3, MTT, average ± S.E.M", "result": "54.5 ± 4.6", "unit": "%"}, {"measurement": "viability at 10 µM", "setting": "TGR-1 cells; Amy22 10 μM, day 3, MTT, average ± S.E.M", "result": "46 ± 2.5", "unit": "%"}, {"measurement": "viability at 25 µM", "setting": "TGR-1 cells; Amy22 25 μM, day 3, MTT, average ± S.E.M", "result": "39.9 ± 2.2", "unit": "%"}, {"measurement": "viability at 50 µM", "setting": "TGR-1 cells; Amy22 50 μM, day 3, MTT, average ± S.E.M", "result": "26.8 ± 4.8", "unit": "%"}, {"measurement": "viability at 100 µM", "setting": "TGR-1 cells; Amy22 100 μM, day 3, MTT, average ± S.E.M", "result": "19 ± 3.7", "unit": "%"}, {"measurement": "IC50", "setting": "TGR-1 cells", "result": 5.8, "unit": "µM"}, {"measurement": "IC50", "setting": "H015.19 cells; MTT day 3, calculated by extrapolation", "result": 1800, "unit": "µM"}, {"measurement": "viability at 3 days, 0.1 μM", "setting": "[3]; Amy22 0.1 μM", "result": "86.3 ± 5.9", "unit": "%"}, {"measurement": "viability at 3 days, 0.5 μM", "setting": "[3]; Amy22 0.5 μM", "result": "84.7 ± 5.7", "unit": "%"}, {"measurement": "viability at 3 days, 1 μM", "setting": "[3]; Amy22 1 μM", "result": "80 ± 4.1", "unit": "%"}, {"measurement": "viability at 3 days, 5 μM", "setting": "[3]; Amy22 5 μM", "result": "75.3 ± 8.8", "unit": "%"}, {"measurement": "viability at 3 days, 10 μM", "setting": "[3]; Amy22 10 μM", "result": "74.6 ± 4.9", "unit": "%"}, {"measurement": "viability at 3 days, 25 μM", "setting": "[3]; Amy22 25 μM", "result": "70.8 ± 5.1", "unit": "%"}, {"measurement": "viability at 3 days, 50 μM", "setting": "[3]; Amy22 50 μM", "result": "67.8 ± 4", "unit": "%"}, {"measurement": "viability at 3 days, 100 μM", "setting": "[3]; Amy22 100 μM", "result": "61.1 ± 3.8", "unit": "%"}, {"measurement": "Elimination rate constant (ke)", "setting": "[4]; blood, male C57BL/6N mice, 140 mg/kg per os in 0.5% CMC", "result": "0.2 ± 0.1", "unit": "h⁻¹"}, {"measurement": "AUC(0-inf)", "setting": "[4]; [7]", "result": "35.4 ± 9.5", "unit": "µM·h"}, {"measurement": "Cmax", "setting": "[4]; [7]", "result": "6.2 ± 1.1", "unit": "µM"}, {"measurement": "Tmax", "setting": "[4]; [7]", "result": "1.5 ± 0.5", "unit": "h"}, {"measurement": "AUC(0-t)", "setting": "[4]; mouse, whole blood, po, blood, male C57BL/6N mice, 140 mg/kg per os in 0.5% CMC, read-out: AUC0-24", "result": "33.6 ± 8.3", "unit": "µM·h"}, {"measurement": "blood concentrations", "setting": "[4]; up to at least 8 hr post dose, oral 140 mg/kg", "result": "> 1", "unit": "micro molar"}, {"measurement": "survival and condition of treated mice", "setting": "[5]; after 150 mg/kg per os daily for 30 days", "result": "still alive 3 months post-treatment with no evident signs of cachexia"}, {"measurement": "standardized uptake value (SUV) of 18F-FDG", "setting": "[5]; at the beginning of treatment", "result": 2.87}, {"measurement": "standardized uptake value (SUV) of 18F-FDG", "setting": "[5]; at the end of treatment, 150 mg/kg per os daily for 30 days", "result": 1.5}]}
{"smiles": "Nc1ccn([C@@H]2O[C@H](CO)[C@@H](O)C2(F)F)c(=O)n1", "note": "[Gemcitabine]", "values": [{"measurement": "remaining tumor as % of untreated PDA tumors (18F-FDG uptake, gamma counting post-mortem)", "setting": "[6]", "result": 31, "unit": "%"}]}
{"smiles": "O=C(Nc1ccc(F)cc1)c1cc2nc(-c3ccco3)cc(C(F)(F)Cl)n2n1", "note": "[formula (III), reference compound]", "values": [{"measurement": "IC50", "setting": "TGR-1 cells", "result": 6.5, "unit": "µM"}, {"measurement": "IC50", "setting": "H015.19 cells; [8]", "result": 13.4, "unit": "µM"}]}
{"smiles": "O=C(c1cc2nc(-c3ccco3)cc(C(F)(F)Cl)n2n1)N1CCNCC1", "note": "[formula (IV), reference compound]", "values": [{"measurement": "IC50", "setting": "TGR-1 cells", "result": 12.3, "unit": "µM"}, {"measurement": "IC50", "setting": "H015.19 cells; [8]", "result": 58.8, "unit": "µM"}]}
